{"source": "patent US8785619B1", "about": "“Nucleosides and oligonucleotides for studies on reversal of cytotoxic and mutagenic damage of DNA potential diagnostics tools” (ChemGenes Corporation, priority 2003, dated 2014)", "key": {"[1]": {"assay": "Kinetic studies of N6 protecting group deprotection in ammonia: migration of methyl group from N1 to N6 (Dimroth rearrangement), by TLC and HPLC", "type": "physicochemical", "excerpt": "Prior to utilize the N-6 chloroacetyl protected N-1 methyl-2′-deoxyadenosine 3′-cyanoethyl phosphoramidite, we carried out a number of kinetic studies for the deprotection of chloroacetyl group and determination of presence of any N-6 methyl\nOur subsequent studies to develop a ideal group which would be cleanly removed under aq ammonia deprotection condition and would have negligible amount of Dimroth rearrangement product as bye product.\nFIG. 7. 5′-DMT-N^1-Methyl-N^6-FMOC-2′-deoxyadenosine-Kinetic Test for FMOC. Deprotection (20% methanolic ammonia at 37 C. Note: The N-6 methyl migration product is seen 2.27% after complete deprotection.\n(required to knock off Phenoxy acetyl from N^6 position). To minimize this migration, we introduced N-FMOC group in place of N-PAC which reduced 20% methanolic ammonia hydrolysis time to only 4 hours at 37° C. but even in 4 hours, approx. 2.5% migration took place. This migration of methyl group from N-^1 to N^6 position was confirmed by TLC & HPLC."}, "[2]": {"conditions": "cited from earlier work"}, "[3]": {"conditions": "2M methanolic ammonia at room temperature"}}, "data": [{"compound": "COc1ccc(C(OC[C@H]2O[C@@H](n3cnc4c(=NC(=O)OCC5c6ccccc6-c6ccccc65)n(C)cnc43)C[C@@H]2O)(c2ccccc2)c2ccc(OC)cc2)cc1", "note": "[5′-DMT-N^1-Methyl-N^6-FMOC-2′-deoxyadenosine]", "values": [{"measurement": "N-6 methyl migration product after complete deprotection", "setting": "[1]; FMOC deprotection, 20% methanolic ammonia at 37 C (FIG. 7)", "result": 2.27, "unit": "%"}]}, {"compound": "Cn1cnc2c(ncn2[C@@H]2O[C@H](CO)[C@@H](O)[C@H]2O)c1=N", "note": "[N^1-methyl adenosine]", "values": [{"measurement": "time stable", "setting": "[2]; [3]", "result": 3, "unit": "days"}, {"measurement": "time to total conversion into N6-methyl adenosine", "setting": "[2]; [3]", "result": 6, "unit": "days"}]}, {"compound": "COc1ccc(C(OCC2OC(n3cnc4c(=NC(=O)OCC5c6ccccc6-c6ccccc65)n(C)cnc43)CC2OP(OCCC#N)N(C(C)C)C(C)C)(c2ccccc2)c2ccc(OC)cc2)cc1", "note": "(stereo not drawn) [5′-DMT-N^1-Methyl-N^6-FMOC-2′-deoxyadenosine-3′-cyanoethyl, n,n-diisopropyl phosphoramidite]", "values": [{"measurement": "presence of N-6 methyl-2′-deoxy adenosine", "setting": "[1]; aq ammonia deprotection", "result": "less than 1%"}]}, {"compound": "Cn1cnc2c(ncn2[C@H]2C[C@H](O)[C@@H](CO)O2)c1=N", "note": "[N^1-methyl-2′-deoxyadenosine]", "values": [{"measurement": "half life of conversion into N6-methyl-2′-deoxyadenosine", "setting": "[2]; 25% aq. ammonia", "result": 36, "unit": "h"}]}, {"compound": "N-6 chloroacetyl protected N-1 methyl-2′-deoxyadenosine 3′-cyanoethyl phosphoramidite", "values": [{"measurement": "N-6 methyl-2′-deoxy adenosine formation (Dimroth rearrangement product)", "setting": "[1]; deprotection of chloroacetyl group", "result": "8-10%"}]}]}
